This passage reports EC50 results from US20220056019A1, “FARNESOID X RECEPTOR AGONISTS AND USES THEREOF” (Metacrine, Inc., priority 2018, published 2022).

Where only a bound is given, the exact number is not on record here.

This assay deals with T1, hFXR (Homo sapiens, UniProt Q96RI1).
T1 construct: expressed in transfected cells; host or cells: CV-1 cells
T1 sequence (Q96RI1 1-486): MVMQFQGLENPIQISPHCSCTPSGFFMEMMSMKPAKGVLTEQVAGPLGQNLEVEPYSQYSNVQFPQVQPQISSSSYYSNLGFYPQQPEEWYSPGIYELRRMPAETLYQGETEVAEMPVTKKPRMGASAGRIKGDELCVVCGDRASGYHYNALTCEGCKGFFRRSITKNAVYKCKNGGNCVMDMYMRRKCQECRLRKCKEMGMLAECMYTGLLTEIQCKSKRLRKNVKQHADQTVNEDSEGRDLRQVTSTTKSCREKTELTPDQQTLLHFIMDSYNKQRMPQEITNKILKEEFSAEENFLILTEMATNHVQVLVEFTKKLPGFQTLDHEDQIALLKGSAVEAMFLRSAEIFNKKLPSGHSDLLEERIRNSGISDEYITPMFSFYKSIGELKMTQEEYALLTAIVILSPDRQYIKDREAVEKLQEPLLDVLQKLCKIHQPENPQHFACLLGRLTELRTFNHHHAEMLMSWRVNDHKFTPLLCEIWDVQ
T1 sequence (P19793 1-462 partner): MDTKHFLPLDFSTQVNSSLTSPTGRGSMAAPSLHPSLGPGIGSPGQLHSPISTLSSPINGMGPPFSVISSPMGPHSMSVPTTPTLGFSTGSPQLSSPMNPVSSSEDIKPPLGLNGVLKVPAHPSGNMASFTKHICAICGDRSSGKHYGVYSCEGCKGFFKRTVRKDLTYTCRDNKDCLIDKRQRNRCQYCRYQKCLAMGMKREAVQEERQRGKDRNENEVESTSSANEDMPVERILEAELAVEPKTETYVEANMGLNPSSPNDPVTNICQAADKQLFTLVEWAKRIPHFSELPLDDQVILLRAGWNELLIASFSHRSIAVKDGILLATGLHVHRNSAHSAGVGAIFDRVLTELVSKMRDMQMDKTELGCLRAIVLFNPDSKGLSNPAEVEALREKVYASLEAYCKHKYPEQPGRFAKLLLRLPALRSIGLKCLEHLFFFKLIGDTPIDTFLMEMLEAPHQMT
The assay can be described thus: In Vitro FXR Assay (TK): TK-ECRE-luc reporter in transfected CV-1 cells. The assay is classed as cell-based. Conditions: 18 hrs incubation, luminescence. The procedure, abridged:
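Luminescence from a TK-ECRE-luc reporter was read after 18 h of compound exposure in CV-1 cells. These cells were grown in charcoal-stripped FBS medium and transiently transfected with hFXR, hRXR and YFP expression plasmids.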
By EC50 is commonly meant the midpoint of the concentration-response curve. A high value points to lower potency in that assay. As for `COc1ccc(C23CCC(CN(c4cc(-c5cnn(C(C)C)c5)ccn4)C(=O)[C@H]4CC[C@H](OC(=O)NCCCCO)CC4)(CC2)CC3)cc1C` [Compound 4.50, 4-((4-(1-Isopropyl-1H-pyrazol-4-yl)pyridin-2-yl) ((4-(4-methoxy-3-methylphenyl)bicyclo [2.2.2]octan-1-yl)methyl)carbamoyl)cyclohexyl(4-hydroxybutyl)trans-carbamate], the EC50 is ≤ 50 nM.

Regarding `COc1ccc(C23CCC(CN(c4cc(-c5cnn(C(C)C)c5)ccn4)C(=O)[C@H]4CC[C@H](OC(=O)N(C)CCO)CC4)(CC2)CC3)cc1C` [Compound 4.51, 4-((4-(1-Isopropyl-1H-pyrazol-4-yl)pyridin-2-yl) ((4-(4-methoxy-3-methylphenyl)bicyclo [2.2.2]octan-1-yl)methyl)carbamoyl)cyclohexyl (2-hydroxyethyl)(methyl) trans-carbamate], the EC50 was ≤ 50 nM.

For the compound `COc1ccc(C23CCC(CN(c4cc(-c5cnn(C(C)C)c5)ccn4)C(=O)[C@H]4CC[C@H](OC(=O)N5CCC5)CC4)(CC2)CC3)cc1C` [Compound 4.52, 4-((4-(1-Isopropyl-1H-pyrazol-4-yl)pyridin-2-yl) ((4-(4-methoxy-3-methylphenyl)bicyclo [2.2.2]octan-1-yl)methyl)carbamoyl)cyclohexyl trans-azetidine-1-carboxylate], the EC50 was ≤ 50 nM.

Turning to `COc1ccc(C23CCC(CN(c4cc(-c5cnn(C(C)C)c5)ccn4)C(=O)[C@H]4CC[C@H](OC(=O)N5CC(C)C5)CC4)(CC2)CC3)cc1C` [Compound 4.53, 4-((4-(1-Isopropyl-1H-pyrazol-4-yl)pyridin-2-yl) ((4-(4-methoxy-3-methylphenyl)bicyclo [2.2.2]octan-1-yl)methyl)carbamoyl)cyclohexyl trans-3-methylazetidine-1-carboxylate], the EC50 was ≤ 50 nM.

Regarding `CCC1CN(C(=O)O[C@H]2CC[C@H](C(=O)N(CC34CCC(c5ccc(OC)c(C)c5)(CC3)CC4)c3cc(-c4cnn(C(C)C)c4)ccn3)CC2)C1` [Compound 4.54, 4-((4-(1-Isopropyl-1H-pyrazol-4-yl)pyridin-2-yl) ((4-(4-methoxy-3-methylphenyl)bicyclo [2.2.2]octan-1-yl)methyl)carbamoyl)cyclohexyl trans-3-ethylazetidine-1-carboxylate], the EC50 was ≤ 50 nM.

In the case of `CCCC1CN(C(=O)O[C@H]2CC[C@H](C(=O)N(CC34CCC(c5ccc(OC)c(C)c5)(CC3)CC4)c3cc(-c4cnn(C(C)C)c4)ccn3)CC2)C1` [Compound 4.55, 4-((4-(1-Isopropyl-1H-pyrazol-4-yl)pyridin-2-yl) ((4-(4-methoxy-3-methylphenyl)bicyclo [2.2.2]octan-1-yl)methyl)carbamoyl)cyclohexyl trans-3-propylazetidine-1-carboxylate], the EC50 was ≤ 50 nM.

For `COCCN(C)C(=O)O[C@H]1CC[C@H](C(=O)N(CC23CCC(c4ccc(OC)c(C)c4)(CC2)CC3)c2cc(-c3cnn(C(C)C)c3)ccn2)CC1` [Compound 4.56, 4-((4-(1-Isopropyl-1H-pyrazol-4-yl)pyridin-2-yl) ((4-(4-methoxy-3-methylphenyl)bicyclo [2.2.2]octan-1-yl)methyl)carbamoyl)cyclohexyl (2-methoxyethyl)(methyl) trans-carbamate], the EC50 is ≤ 50 nM.

For `CC(C)n1cc(-c2ccnc(N(CC34CCC(c5ccc(N(C)C)nc5)(CC3)CC4)C(=O)[C@H]3CC[C@H](OC(=O)N4CC(O)C4)CC3)c2)cn1` [Compound 4.57, 4-(((4-(6-(Dimethylamino)pyridin-3-yl)bicyclo[2.2.2]octan-1-yl)methyl)(4-(1-isopropyl-1H-pyrazol-4-yl)pyridin-2-yl)carbamoyl) (trans-cyclohexyl) 3-hydroxyazetidine-1-carboxylate], the EC50 is ≤ 50 nM.

As for `COc1ccc(C23CCC(CN(c4cccc(-n5cnc(C6CC6)c5)c4)C(=O)[C@H]4CC[C@H](OC(=O)N5CC(O)C5)CC4)(CC2)CC3)cc1C` [Compound 4.58, 4-((3-(4-Cyclopropyl-1H-imidazol-1-yl)phenyl) ((4-(4-methoxy-3-methylphenyl)bicyclo [2.2.2]octan-1-yl)methyl)carbamoyl)cyclohexyl trans-3-hydroxyazetidine-1-carboxylate], the EC50 was ≤ 50 nM.

For `COc1ccc(C23CCC(CN(c4ccnc(-c5cnn(C(C)C)c5)c4)C(=O)[C@H]4CC[C@H](OC(=O)N5CC(O)C5)CC4)(CC2)CC3)cc1C` [Compound 4.59, 4-((2-(1-Isopropyl-1H-pyrazol-4-yl)pyridin-4-yl) ((4-(4-methoxy-3-methylphenyl)bicyclo [2.2.2]octan-1-yl)methyl)carbamoyl)(trans-cyclohexyl) 3-hydroxyazetidine-1-carboxylate], the EC50 was ≤ 50 nM.

Consider `COc1ccc(C23CCC(CN(c4nccc(-c5cnn(C(C)C)c5)n4)C(=O)[C@H]4CC[C@H](OC(=O)N5CC(O)C5)CC4)(CC2)CC3)cc1C` [Compound 4.60, 4-((4-(1-Isopropyl-1H-pyrazol-4-yl)pyrimidin-2-yl)((4-(4-methoxy-3-methylphenyl)bicyclo [2.2.2]octan-1-yl)methyl)carbamoyl)(trans-cyclohexyl) 3-hydroxyazetidine-1-carboxylate], for which the EC50 is ≤ 50 nM.

`COc1ccc(C23CCC(CN(c4cnnc(-c5cnn(C(C)C)c5)c4)C(=O)[C@H]4CC[C@H](OC(=O)N5CC(O)C5)CC4)(CC2)CC3)cc1C` [Compound 4.61, 4-((6-(1-Isopropyl-1H-pyrazol-4-yl)pyridazin-4-yl)((4-(4-methoxy-3-methylphenyl)bicyclo [2.2.2]octan-1-yl)methyl)carbamoyl)(trans-cyclohexyl) 3-hydroxyazetidine-1-carboxylate] came in with an EC50 of 50 to 1000 nM.

For `CC(C)c1ccc(C23CCC(CN(c4nccc(-c5cnn(C(C)C)c5)n4)C(=O)[C@H]4CC[C@H](OC(=O)N5CC(O)C5)CC4)(CC2)CC3)cc1` [Compound 4.62, 4-((4-(1-Isopropyl-1H-pyrazol-4-yl)pyrimidin-2-yl)((4-(4-isopropylphenyl)bicyclo[2.2.2]octan-1-yl)methyl)carbamoyl)(trans-cyclohexyl) 3-hydroxyazetidine-1-carboxylate], the EC50 was ≤ 50 nM.

As for `CC(C)c1ccc(C23CCC(CN(c4cncc(-c5cnn(C(C)C)c5)n4)C(=O)[C@H]4CC[C@H](OC(=O)N5CC(O)C5)CC4)(CC2)CC3)cc1` [Compound 4.63, 4-((6-(1-Isopropyl-1H-pyrazol-4-yl)pyrazin-2-yl) ((4-(4-isopropylphenyl)bicyclo[2.2.2]octan-1-yl)methyl)carbamoyl)(trans-cyclohexyl) 3-hydroxyazetidine-1-carboxylate], the EC50 is ≤ 50 nM.

Consider `COc1ccc([C@H]2CC[C@H](CN(c3cccc(-n4cnc(C5CC5)n4)c3)C(=O)[C@H]3CC[C@H](OC(=O)N4CC(O)C4)CC3)CC2)cc1C` [Compound 5, trans-4-((3-(3-Cyclopropyl-1H-1,2,4-triazol-1-yl)phenyl)((trans-4-(4-methoxy-3-methylphenyl)cyclohexyl)methyl)carbamoyl)cyclohexyl 3-hydroxyazetidine-1-carboxylate], for which the EC50 is ≤ 50 nM.

Regarding `COc1ccc([C@H]2CC[C@H](CN(c3cccc(-c4cnn(C(C)C)c4)c3)C(=O)[C@H]3CC[C@H](OC(=O)NCC(C)(C)O)CC3)CC2)nc1C` [Compound 5.01, trans-4-((3-(1-Isopropyl-1H-pyrazol-4-yl)phenyl)((trans-4-(5-methoxy-6-methylpyridin-2-yl)cyclohexyl)methyl)carbamoyl)cyclohexyl (2-hydroxy-2-methylpropyl) carbamate], the EC50 is ≤ 50 nM.

On to `COc1ccc([C@H]2CC[C@H](CN(c3cccc(-c4cnn(C(C)C)c4)c3)C(=O)[C@H]3CC[C@H](OC(=O)NCC(F)(F)CO)CC3)CC2)cc1C` [Compound 5.02, trans-4-((3-(1-Isopropyl-1H-pyrazol-4-yl)phenyl)(((trans)-4-(4-methoxy-3-methylphenyl)cyclohexyl)methyl)carbamoyl)cyclohexyl (2,2-difluoro-3-hydroxypropyl)carbamate], for which the EC50 is ≤ 50 nM.

Turning to `CCCNC(=O)O[C@H]1CC[C@H](C(=O)N(C[C@H]2CC[C@H](c3ccc(OC)c(C)c3)CC2)c2cccc(-c3cnn(C(C)C)c3)c2)CC1` [Compound 5.03, trans-4-((3-(1-Isopropyl-1H-pyrazol-4-yl)phenyl)(((trans)-4-(4-methoxy-3-methylphenyl)cyclohexyl)methyl)carbamoyl)cyclohexyl propylcarbamate], the EC50 is ≤ 50 nM.
